What was measured:
[1] = system: K103N + Y181C double RT mutant HIV-1 strain; assay: Anti-HIV-1 activity against K103N + Y181C double mutant strain in MT-4 cells; assay type: cell-based; conditions: MT-4 cells; read-out: EC50 K103N + Y181C
[2] = system: Y188L mutant HIV-1 strain; assay: Anti-HIV-1 activity against Y188L mutant strain in MT-4 cells; assay type: cell-based; conditions: MT-4 cells; read-out: EC50 Y188L
[3] = system: K103N mutant HIV-1 strain; assay: Anti-HIV-1 activity against K103N mutant strain in MT-4 cells; assay type: cell-based; conditions: MT-4 cells; read-out: EC50 K103N
MT-4 cells = assay: Cytotoxicity in uninfected MT-4 cells, MTT method; assay type: cell-based; conditions: uninfected MT-4 cells; viability reduced by 50%
Protocol: (§1) The newly synthesized compounds were evaluated for their potency and cytotoxicity against the WT HIV-1 (strain IIIB) in MT-4 cells using the MTT method. The biological evaluation results are represented as EC50 values (anti-HIV-1 activity), CC50 values (cytotoxicity), and SI values (selectivity index, CC50/EC50 ratio).

[4] = system: E138K mutant HIV-1 strain; assay: Anti-HIV-1 activity against E138K mutant strain in MT-4 cells; assay type: cell-based; conditions: MT-4 cells; read-out: EC50 E138K
[5] = system: Y181C mutant HIV-1 strain; assay: Anti-HIV-1 activity against Y181C mutant strain in MT-4 cells; assay type: cell-based; conditions: MT-4 cells; read-out: EC50 Y181C
[6] = system: L100I mutant HIV-1 strain; assay: Anti-HIV-1 activity against L100I mutant strain in MT-4 cells; assay type: cell-based; conditions: MT-4 cells; read-out: EC50 L100I
[7] = system: F227L + V106A double RT mutant HIV-1 strain; assay: Anti-HIV-1 activity against F227L + V106A double mutant strain in MT-4 cells; assay type: cell-based; conditions: MT-4 cells; read-out: EC50 F227L + V106A
WT HIV-1 (strain IIIB) = assay: microbe, parasite or virus in culture; assay type: cell-based; conditions: MT-4 cells; protection against virus-induced cytopathicity by 50%; mean of at least three experiments; read-out: EC50 HIV-1 IIIB
Protocol: as §1

WT HIV-1 RT = WT HIV-1 RT (Human immunodeficiency virus type 1 group M subtype B, UniProt P03366); assay: Enzymatic assay against WT HIV-1 RT; conditions: read-out: IC50 WT HIV-1 RT polymerase activity
Protocol: The enzymatic assay against WT HIV-1 RT was conducted for most compounds (Table 2).

SMILES	EC50 [1] [µM]	EC50 [2] [µM]	EC50 [3] [µM]	CC50 (MT-4 cells) [µM]	EC50 [4] [µM]	EC50 [5] [µM]	EC50 [6] [µM]	EC50 [7] [µM]	EC50 (WT HIV-1 (strain IIIB)) [µM]	IC50 (WT HIV-1 RT) [µM]
N#Cc1ccc(Nc2nccc(C(C#N)c3ccc(-c4ccccc4)cc3)n2)cc1 (racemic) [Compound 10a, (±)-4-((4-([1,1′-biphenyl]-4-yl(cyano)methyl)pyrimidin-2-yl)amino)benzonitrile]	> 30.8	> 30.8	> 30.8	30.8 ± 8.57	≥ 12.6	> 30.8	> 30.8	> 30.8	2.9 ± 1.89	–
N#Cc1ccc(Nc2nccc(C(C#N)c3ccc(-c4ccccc4)c(F)c3)n2)cc1 (racemic) [Compound 10b, (±)-4-((4-(cyano(2-fluoro-[1,1′-biphenyl]-4-yl)methyl)pyrimidin-2-yl)amino)benzonitrile]	> 27.3	> 27.3	> 27.3	27.3 ± 5.85	9.29 ± 1.37	> 27.3	≥ 27.3	> 27.3	4.96 ± 0.56	0.46 ± 0.162
N#Cc1ccc(Nc2nccc(C(C#N)c3ccc(-c4ccccc4)cc3F)n2)cc1 (racemic) [Compound 10c, (±)-4-((4-(cyano(3-fluoro-[1,1′-biphenyl]-4-yl)methyl)pyrimidin-2-yl)amino)benzonitrile]	> 23.8	> 23.8	10.3 ± 0.85	23.8 ± 4.48	1.69 ± 0.17	6.37 ± 0.78	≥ 10.3	> 23.8	0.33 ± 0.07	0.062 ± 0.024
COc1ccc(-c2ccc(C(C#N)c3ccnc(Nc4ccc(C#N)cc4)n3)c(F)c2)cc1 (racemic) [Compound 10i, (±)-4-((4-(cyano(3-fluoro-4′-methoxy-[1,1′-biphenyl]-4-yl)methyl)pyrimidin-2-yl)amino)benzonitrile]	> 183	50.1 ± 6.52	27 ± 3	183	5.51 ± 1.06	8.57 ± 1.21	31.6 ± 7.35	52.5	0.51 ± 0.42	–
N#Cc1ccc(Nc2nccc(C(C#N)c3ccc(-c4ccc(F)cc4)cc3F)n2)cc1 (racemic) [Compound 10l, (±)-4-((4-(cyano(3,4′-difluoro-[1,1′-biphenyl]-4-yl)methyl)pyrimidin-2-yl)amino)benzonitrile]	> 25.6	> 25.6	6.87 ± 1.17	25.6 ± 3.58	0.98 ± 0.13	5.1 ± 0.51	6.9 ± 1.76	> 25.6	0.18 ± 0.16	–
N#Cc1ccc(Nc2nccc(C(C#N)c3ccc(-c4cccc(Cl)c4)cc3F)n2)cc1 (racemic) [Compound 10n, (±)-4-((4-((3′-chloro-3-fluoro-[1,1′-biphenyl]-4-yl)(cyano)methyl)pyrimidin-2-yl)amino)benzonitrile]	> 27.6	> 27.6	7.2 ± 0.89	27.6 ± 4.05	2.67 ± 0.21	9.19 ± 2.05	8.31 ± 1.2	–	0.39 ± 0.1	0.171 ± 0.132
N#Cc1ccc(Nc2nccc(C(C#N)c3ccc(-c4ccc(Cl)cc4)cc3F)n2)cc1 (racemic) [Compound 10o, (±)-4-((4-((4′-chloro-3-fluoro-[1,1′-biphenyl]-4-yl)(cyano)methyl)pyrimidin-2-yl)amino)benzonitrile]	> 27.5	> 27.5	7.32 ± 0.87	27.5 ± 7.3	1.5 ± 0.28	7.49 ± 1.64	5.28 ± 1.29	> 27.5	0.18 ± 0.14	–
N#Cc1ccc(Nc2nccc(C(C#N)c3ccc(-c4ccc(C#N)cc4)cc3F)n2)cc1 (racemic) [Compound 10p, (±)-4′-(cyano(2-((4-cyanophenyl)amino)pyrimidin-4-yl)methyl)-3′-fluoro-[1,1′-biphenyl]-4-carbonitrile]	> 36.4	9.81 ± 1.3	0.9 ± 0.27	36.4	0.17 ± 0.03	0.87 ± 0.23	1.21 ± 0.21	–	0.027 ± 0.015	0.059 ± 0.034

Source: article PMC7179183, “Design of Biphenyl-Substituted Diarylpyrimidines with a Cyanomethyl Linker as HIV-1 NNRTIs via a Molecular Hybridization Strategy” (Molecules, 2020)
